In patent US20160038519A1, “ADMINISTRATION OF KARENITECIN FOR THE TREATMENT OF ADVANCED OVARIAN CANCER, INCLUDING CHEMOTHERAPY-RESISTANT AND/OR THE MUCINOUS ADENOCARCINOMA SUB-TYPES” (BioNumerik Pharmaceuticals, Inc., priority 2014, published 2016):

Key:
human cancer cell lines = assay: Paclitaxel- and platinum-induced cytotoxicity; type: cell-based
Excerpt: (§1) Tavocept mediates the non-enzymatic xenobiotic modification of sulfur-containing amino acid residues (e.g., cysteine) on proteins. As an engineered, non-naturally occurring agent (i.e., xenobiotic), Tavocept is autocatalytic and requires no protein cofactor to cause the xenobiotic modification of cysteine, but appears to be specific for cysteine residues located within a particular structural context (i.e., not all cysteines in a protein are so modified). Tavocept-mediated, xenobiotic modification represents a novel mechanism of action for a cancer treating agent and can be compared, to a degree, with post-translational modifications of cysteine residues in proteins (see, Table 3, below). By way of non-limiting example, some of the important elements of Tavocept's effectiveness as a compound in the treatment of cancer are its selectivity for normal cells versus cancer cells and its absence of interference with the anti-cancer activity of cancer treating agents.

[1] = tested on: mucinous cell lines (JHOM2B, OMC3, and COV644); assay: SRB assay, joint statements for the mucinous cell lines incl. effect of BNP7787 on BNP1350-induced cytotoxicity; type: cell-based, human
Method: In vitro studies were conducted in human mucinous ovarian cancer cell lines including JHOM2B, OMC3, and COV644. In one series of experiments, the dose response curves for BNP1350 (also known as Karenitecin), SN-38 (Irinotecan), and Topotecan were obtained and IC50 values were determined. In a second series of experiments, the effect of BNP7787 (2,2′-dithio-bis-ethane sulfonate; Tavocept) on BNP1350-induced cytotoxicity at selected BNP1350 concentrations was examined.
The JHOM2B and OMC3 cell lines were purchased from Riken Cell Bank (Japan). The COV644 cell line was purchased from SigmaAldrich. Cells were maintained as monolayered cultures in T-75 flasks and then seeded to microtiter plate wells for experiments. Population doubling-times for these three cell lines were long (i.e., exceeding 40 hours, and for some of the cell lines approaching 96 hours); therefore, the Applicants conducted initial pilot experiments and determined optimal seeding density to obtain A570 values in untreated controls that would fall within the linear range of the SRB assay after seven (7) total days of cell growth. […]
The cells were manipulated in a Microzone laminar flow hood traditionally used for maintaining aseptic environments around automated instrumentation such as microplate robots, and the like. […] Cells were counted using a ViCell counter (Beckman-Coulter). An automated plate washer/stacker (ELx405/BioStak from BioTek Instruments) and a microplate reader (SpectraMax Plus from Molecular Devices) were used for conducting the SRB assay and determining A570 values for wells in the plates and the percentage of control values. Prior to SRB assays, cell viability was monitored by evaluation of microtiter plate wells. […]
The sulforhodamine B (SRB) cytotoxicity assay was used to assess cell survival. […] Plates were agitated (gently) for 5 minutes and the absorbance values of the SRB dye-protein adduct at 570 nanometers (A570) were determined using an automated microtiter plate reader (SpectraMax Plus, Molecular Devices). […]

[2] = tested on: human breast, ovarian and lymphoma cancer cell lines; assay: Paclitaxel induced apoptosis (PARP cleavage, Bcl-2 phosphorylation, DNA laddering); type: cell-based
Excerpt: as §1

O=S(=O)([O-])CCSSCCS(=O)(=O)[O-].[Na+].[Na+] [BNP7787, 2,2′-dithio-bis-ethane sulfonate]
Interference with paclitaxel- and platinum-induced cytotoxicity (human cancer cell lines): not to interfere
Effect on BNP1350-induced cytotoxicity ([1]; BNP7787 1 or 10 mM added simultaneously with approximate IC50 and IC25 values of BNP1350, each cell line): no notable effect
Effect on cell survival as single agent ([1]; BNP7787 alone, 1 and 10 mM): did not affect cell survival
Interference with paclitaxel induced apoptosis [2]: does not interfere
